Experimental data as given in patent US20080187492A1, “Drosophila Models For Diseases Affecting Learning and Memory” (priority 2004, published 2008).

Assays:
[1] = system: FS (dFMR1-3+frame shifted rescue fragment) flies; assay: Conditioned courtship: short-term memory at 60 minutes, virgin female target, FS flies; type: in vivo, Drosophila melanogaster; conditions: for short-term memory: concentration not given; for short term memory: LY341495 (400 nM), MPEP (20 μg/ml); for short-term memory at 60 minutes after training: adulthood alone or both
Description: Short-term memory. The model was further extended to encompass short-term memory at 60 minutes after training. After the one hour training session with a previously mated female, the female is removed and the male is placed in a holding chamber for 60 minutes, then subsequently placed in a testing chamber with a virgin female target to assess short-term memory (FIG. 4C). […] CT-CT FS flies court just as vigorously at 60 minutes after training as naive CT-CT FS flies. […] The FS groups that were treated with MPEP in development alone, adulthood alone or in both development and adulthood display experience dependent reduction of courtship activity at 60 minutes after training when compared to group matched naives M-M FS, p<0.0001, CT-M FS, p<0.0001 and M-CT FS, p<0.0001. […] Additionally, flies were tested for ability to discriminate between virgin and previously mated females (FIG. 4D).
In order to examine short-term memory at 60 minutes after training, after the one hour training session with a previously mated female, the female is removed and the male is placed in a holding chamber for 60 minutes, then subsequently placed in a testing chamber with a virgin female (FIG. 9B). […] CT-CT FS flies court just as vigorously at 60 minutes after training as naive CT-CT FS flies. […] The FS groups that were treated with MPEP in development alone, adulthood alone or in both development and adulthood display experience dependent reduction of courtship activity at 60 minutes after training when compared to group matched naives M-M FS.

FS mutant flies = assay: Fusion of mushroom body β-lobes (anti-FasII staining), FS mutant flies; type: in vivo, Drosophila melanogaster
Description: Histological analysis was performed on relevant experimental flies, showing the fusion of MB beta lobes and the rescue of these fusions with in mGluR antagonists (FIG. 18). Brains from (0-1 day old) dfmr1 mutant adult flies were stained with anti-fasciclin II (ID4) and a rhodamine-coupled secondary antibody. The α, β, & γ lobes of the MBs are clearly labeled with this antibody and appear normal in this mutant brain (Panel A). Panels B-E show a higher magnification of the β-lobes at the midline. […] Panels C-E show mutants brains displaying a C) “mild” (arrowhead), D) “moderate” and E) “severe” level of midline crossing by the […]. […] WT rescue flies are dfmr1 mutants containing one copy of the dfmr1 genomic rescue fragment. The number of brains examined are listed below each group.
Rescue of β-lobe fusions with mGluR antagonists. Previously it has been established that the mushroom bodies are involved in learning and memory in the conditioned courtship and the odor shock classical conditioning paradigms in Drosophila (deBelle and Heisenberg, 1994; Joiner and Griffith, 1999; McBride et al, 1999; Zars et al, 2000; Paschel and Preat, 2001). […] When labeled with anti-FasII, we observed a range of β-lobe fusion defects in brains derived from 0-2 day old FS mutant flies, but not Rescue flies (FIG. 18).
Since treatment of FS mutant flies with mGluR antagonists rescued the memory defects observed in these flies, we examined the effect of these treatments on the β-lobe fusion defect to determine if the rescue of the two phenotypes was correlated. We raised FS mutant flies in food containing 8.6 mM MPEP, 400 nM LY341495 or 350 mM MTPG, then examined the morphology of the MBs in 0-2 day old adults. […] For example, mild fusion defects were only observed in 18% of FS mutant brains raised in food containing 400 nM LY341495 (FIG. 18F). No effect was observed when these drugs were fed to Rescue flies during development (not shown).
If this is true, then we would expect that the behavioral rescue obtained by treating FS mutant flies these drugs during adulthood alone would lead to a similar morphological rescue. To test this hypothesis, we treated FS mutant flies with 8.6 mM MPEP for four days starting at eclosion, and then transferred them to normal food for 24 hours before examining the morphology of their MBs. For comparison we also examined the MBs of flies left in control food for five days. […] Thus it appears that rescue of this morphological defect is not absolutely necessary for the rescue of the memory defects observed in the dfmr1 mutant flies.

[2] = raised in food containing 8.6 mM MPEP, 400 nM LY341495 or 350 mM MTPG, 0-2 day old adults

SMILES: N[C@](CC1c2ccccc2Oc2ccccc21)(C(=O)O)[C@H]1C[C@@H]1C(=O)O [LY341495, (2S)-2-amino-2-[(1S,2S)-2-carboxycycloprop-1-yl]-3-(xanth-9-yl) propionic acid]
- short-term memory ([1]; 20-day-old): rescue short-term memory
- short term memory ([1]; 5 day old): restored short-term memory
- FS mutant brains with (mild) fusion defects (FS mutant flies; raised in food containing 400 nM LY341495, untreated roughly 70%): 18%
- β-lobe fusion defects (FS mutant flies; [2]): rescue of the β-lobe fusion defects

SMILES: CC(N)(C(=O)O)c1ccc(-c2nnn[nH]2)cc1 (racemic) [MTPG, (RS)-α-methyl-4-tetrazolylphenylglycine]
- short-term memory ([1]; 20-day-old): rescue short-term memory
- β-lobe fusion defects (FS mutant flies; [2]): rescue of the β-lobe fusion defects

SMILES: Cc1cccc(C#Cc2ccccc2)n1 [MPEP, 2-methyl-6-(phenylethynyl)pyridine]
- short-term memory at 60 minutes after training ([1]; 20-day-old, MPEP in development alone): short-term memory is also rescued
- short term memory ([1]; 5 day old): restored short-term memory
- short-term memory at 60 minutes after training ([1]; 5 day old, MPEP 200 μg/ml in development alone, p<0.0001): short-term memory is also rescued
- β-lobe fusion defects (FS mutant flies; 8.6 mM MPEP for four days starting at eclosion (adulthood only)): did not observe any rescue of the β-lobe fusion defects
- β-lobe fusion defects (FS mutant flies; [2]): rescue of the β-lobe fusion defects
